Test results taken from the supplement of paper PMC10307832.

How the values were obtained:
Experiment in all cases: relative viability (nuclei count vs DMSO), 5 days (fraction); higher = more cells survive
[1] = compound: Cc1ccc2nc(NCCN)c3ncc(C)n3c2c1 + COc1cccc2cc(-c3nc([C@H]4CC[C@H](C(=O)O)CC4)n4ncnc(N)c34)[nH]c12 [OSI-027] (partner 0.5 µM)
How it was run: (§1)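 Five library-drug doses in √10 steps were combined with a fixed anchor-drug dose, or a single drug was given alone, by pin tool to lung cancer cell lines in 1536-well plates the day after seeding. Nuclei were stained and counted after 5 days. Relative viability is the nuclei count in treated wells over that in vehicle wells, taken as the median of duplicate plates.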

[2] = compound: O=C(/C=C/c1ccccc1)NC(NC(=S)Nc1cccc2cccnc12)C(Cl)(Cl)Cl [Salubrinal] + Cc1nc(NC(=O)N2CCC[C@H]2C(N)=O)sc1-c1ccnc(C(C)(C)C(F)(F)F)c1 [Alpelisib] (partner 2 µM)
How it was run: as §1

[3] = compound: Cc1ccc2nc(NCCN)c3ncc(C)n3c2c1 + NC(=O)Nc1cc(-c2cccc(F)c2)sc1C(=O)N[C@H]1CCCNC1 [AZD7762] (partner 0.2 µM)
How it was run: as §1

[4] = compound: Cc1ccc2nc(NCCN)c3ncc(C)n3c2c1 + Cc1cc(Nc2cc(N3CCN(C)CC3)nc(Sc3ccc(NC(=O)C4CC4)cc3)n2)n[nH]1 [Tozasertib] (partner 0.1 µM)
How it was run: as §1

Cell Line	relative viability ([1]; first compound 0.04 µM)	relative viability ([1]; first compound 0.1265 µM)	relative viability ([1]; first compound 0.4 µM)	relative viability ([1]; first compound 1.265 µM)	relative viability ([1]; first compound 4 µM)	relative viability ([2]; first compound 0.08 µM)	relative viability ([2]; first compound 0.253 µM)	relative viability ([2]; first compound 0.8 µM)	relative viability ([2]; first compound 2.53 µM)	relative viability ([2]; first compound 8 µM)	relative viability ([3]; first compound 0.04 µM)	relative viability ([3]; first compound 0.1265 µM)	relative viability ([3]; first compound 0.4 µM)	relative viability ([3]; first compound 1.265 µM)	relative viability ([3]; first compound 4 µM)	relative viability ([4]; first compound 0.04 µM)	relative viability ([4]; first compound 0.1265 µM)	relative viability ([4]; first compound 0.4 µM)	relative viability ([4]; first compound 1.265 µM)	relative viability ([4]; first compound 4 µM)
HCC-366	1.11	1.05	0.677	0.892	0.899	0.609	0.361	0.426	0.472	0.326	0.272	0.278	0.318	0.228	0.239	0.119	0.135	0.215	0.116	0.221
HCC-827	0.802	0.779	0.873	0.841	0.736	0.995	1.07	0.954	0.985	0.963	0.222	0.265	0.224	0.207	0.18	0.465	0.433	0.454	0.459	0.425
HOP-62	0.93	0.83	0.582	0.848	0.813	0.861	1.26	0.95	1.03	1.21	0.849	0.638	0.528	0.543	0.595	0.383	0.379	0.396	0.367	0.402
IA-LM	–	–	–	–	–	0.828	0.906	0.885	0.66	0.747	–	–	–	–	–	–	–	–	–	–
LC-2-ad	0.866	0.825	0.789	0.889	0.784	1.01	0.784	0.92	0.881	0.831	0.86	0.806	0.822	0.86	0.795	0.445	0.491	0.533	0.387	0.42
NCI-H520	0.301	0.23	0.263	0.237	0.305	0.904	0.578	1.18	0.878	0.949	–	–	–	–	–	0.476	0.458	0.371	0.424	0.405
NCI-H522	0.622	0.802	0.649	0.657	0.613	–	–	–	–	–	0.754	0.778	0.634	0.843	0.765	0.557	0.647	0.555	0.517	0.592
NCI-H661	0.808	0.713	0.732	0.82	0.693	0.572	0.864	0.937	0.845	0.686	–	–	–	–	–	0.358	0.353	0.366	0.321	0.372
NCI-H1299	–	–	–	–	–	1.04	1.03	1.05	1.15	0.982	–	–	–	–	–	–	–	–	–	–
NCI-H1563	0.78	0.769	0.768	0.796	0.728	0.882	0.939	1.1	0.925	0.878	–	–	–	–	–	–	–	–	–	–
NCI-H1648	0.242	–	0.249	–	0.233	–	–	–	–	–	0.687	0.682	0.587	0.709	0.737	0.498	–	0.546	–	0.3
NCI-H1650	0.784	0.563	0.53	0.548	0.438	–	–	–	–	–	–	–	–	–	–	0.434	0.431	0.513	0.439	0.296
NCI-H1703	–	–	–	–	–	0.394	0.359	0.324	0.365	0.374	0.131	0.114	–	0.111	0.132	–	–	–	–	–
NCI-H1792	0.683	0.756	0.707	0.704	0.638	0.8	–	0.646	0.676	0.611	0.822	0.665	–	0.768	0.674	–	–	–	–	–
NCI-H2009	0.764	0.668	0.722	0.632	0.525	1.16	1.1	1.19	1.16	1.07	–	–	–	–	–	0.754	0.725	0.72	0.734	0.541
NCI-H2023	0.51	0.387	0.489	0.453	0.369	0.679	0.586	0.688	0.587	0.488	–	–	–	–	–	0.333	0.395	0.361	0.32	0.251
NCI-H2228	0.589	0.656	0.617	0.59	0.719	0.87	0.582	0.792	0.861	0.725	–	–	–	–	–	0.297	0.266	0.279	0.224	0.219
NCI-H2342	0.659	0.607	0.767	0.551	0.595	–	–	–	–	–	0.548	0.655	0.479	0.452	0.479	0.481	0.583	0.47	0.599	0.463
SK-LU-1	0.371	0.369	0.376	0.376	0.361	1.1	0.864	1.35	1.07	0.951	–	–	–	–	–	0.378	0.373	0.392	0.339	0.308
SK-MES-1	0.66	0.659	0.59	0.668	0.632	1.01	0.888	1.09	0.992	0.664	–	–	–	–	–	0.898	0.904	0.921	0.929	0.678
SW 900	0.453	0.661	–	0.465	0.553	–	–	–	–	–	–	0.56	0.438	0.694	0.736	0.491	0.513	–	0.471	0.612
SW 1573	0.737	0.579	0.711	0.634	0.409	0.802	0.909	0.827	1.04	0.604	–	–	–	–	–	0.187	0.177	0.19	0.214	0.157
UMC-11	0.51	0.471	0.481	0.416	0.47	1.29	0.782	1.11	0.963	0.89	–	–	–	–	–	0.211	0.233	0.209	0.205	0.194
